What all share (test): relative viability (nuclei count vs DMSO), 5 days (fraction); higher = more cells survive
Compound in the test “MK-8033 + Bortezomib”: Cn1cc(-c2cnc3ccc4ccc(CS(=O)(=O)NCc5ccccn5)cc4c(=O)c3c2)cn1 [MK-8033] + CC(C)C[C@H](NC(=O)[C@H](Cc1ccccc1)NC(=O)c1cnccn1)B(O)O [Bortezomib] (partner 0.002 µM)
An outline of the steps:
(§1)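 Lung cancer cell lines, seeded in 1536-well plates, were treated the following day by pin tool with a single drug or with five library-drug doses (not always all listed) in √10 steps on top of a fixed anchor-drug dose. Cells were fixed and nuclei stained in one step after 5 days, and nuclei were counted. Relative viability is the nuclei count for treated wells divided by that for vehicle wells, reported as medians of duplicate plates.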

Compound in the test “MK-8033 + Decitabine”: Cn1cc(-c2cnc3ccc4ccc(CS(=O)(=O)NCc5ccccn5)cc4c(=O)c3c2)cn1 [MK-8033] + Nc1ncn([C@H]2C[C@H](O)[C@@H](CO)O2)c(=O)n1 [Decitabine] (partner 2 µM)
An outline of the steps: as §1

Compound in the test “Irinotecan + Luminespib”: CCc1c2c(nc3ccc(OC(=O)N4CCC(N5CCCCC5)CC4)cc13)-c1cc3c(c(=O)n1C2)COC(=O)[C@]3(O)CC [Irinotecan] + CCNC(=O)c1noc(-c2cc(C(C)C)c(O)cc2O)c1-c1ccc(CN2CCOCC2)cc1 [Luminespib] (partner 0.01 µM)
An outline of the steps: as §1

Compound in the test “Irinotecan + Crizotinib”: CCc1c2c(nc3ccc(OC(=O)N4CCC(N5CCCCC5)CC4)cc13)-c1cc3c(c(=O)n1C2)COC(=O)[C@]3(O)CC [Irinotecan] + C[C@@H](Oc1cc(-c2cnn(C3CCNCC3)c2)cnc1N)c1c(Cl)ccc(F)c1Cl [Crizotinib] (partner 1 µM)
An outline of the steps: as §1

From the supplement of paper PMC10307832 come the findings set out here.

As for UMC-11, the relative viability came to 0.673 in the test with MK-8033 + Bortezomib (first compound 0.02 µM); 0.664 with MK-8033 + Bortezomib (first compound 0.06325 µM); 0.831 with MK-8033 + Bortezomib (first compound 0.2 µM); 0.665 in the test with MK-8033 + Bortezomib (first compound 0.6325 µM); 0.664 with MK-8033 + Bortezomib (first compound 2 µM); 0.593 in the test with MK-8033 + Decitabine (first compound 0.02 µM). The relative viability with MK-8033 + Decitabine (first compound 0.06325 µM) stood at 0.424; in the test with MK-8033 + Decitabine (first compound 0.2 µM) it was 0.59; with MK-8033 + Decitabine (first compound 0.6325 µM), 0.714; in the test with MK-8033 + Decitabine (first compound 2 µM) it was 0.612; in the test with Irinotecan + Luminespib (first compound 0.6325 µM), 0.569; with Irinotecan + Luminespib (first compound 2 µM), 0.491. Moreover, the relative viability in the test with Irinotecan + Luminespib (first compound 6.325 µM) was 0.383; in the test with Irinotecan + Luminespib (first compound 20 µM), 0.192; with Irinotecan + Crizotinib (first compound 0.6325 µM) it was 0.296; in the test with Irinotecan + Crizotinib (first compound 2 µM), 0.374; with Irinotecan + Crizotinib (first compound 6.325 µM) it was 0.326; with Irinotecan + Crizotinib (first compound 20 µM), 0.157.
